Laboratory results from US7393846B2, “Heterocyclic compounds useful for the treatment of inflammatory and allergic disorders” (Glenmark Pharmaceuticals, S.A., priority 2003, dated 2008).
Where a name gives a salt, the structure may show the parent alone. Read-outs that look alike come from different tables or passages of the source. One block for each compound: values may come before it.

Legend:
[1] = target: PDE4 enzyme; experiment: Inhibition of Phosphodiesterase Enzymes (PDE4), [3H]cAMP hydrolysis assay; type: biochemical; details: PDE4 inhibition, 1 μM cAMP, 34° C., 20 minutes
Description: Inhibition of Phosphodiesterase Enzymes (PDE4)
In this assay, PDE4 enzyme converts [^3H] cAMP to the corresponding [^3H] 5′-AMP in proportion to the amount of PDE4 present. The [^3H] 5′-AMP then was quantitatively converted to free [^3H] adenosine and phosphate by the action of snake venom 5′-nucleotidase.
The assay was performed with modification of the method of Thompson and Appleman (Biochemistry; 1971; 10; 311-316) and Schwartz and Passoneau (Proc. Natl. Acad. Sci. U.S.A. 1974; 71; 3844-3848), both references incorporated herein by reference in their entirety, at 34° C. In a 200 ul total reaction mixture, the reaction mixture contained 12.5 mM of Tris, 5 mM MgCl2, 1 μM cAMP (cold) and ^3H cAMP (0.1 uCi), (Amersham). […] Drug samples were then added in the reaction mixture (25 μt/tube). The assay was initiated by addition of enzyme mix (75 μl) and the mixture was incubated for 20 minutes at 34° C. The reaction was stopped by boiling the tubes for 2 mins at 100° C. in a water bath. After cooling on ice for 5 minutes and addition of 50 ug/reaction of 5′-nucleotidase snake venom from Crotalus atrox incubation was carried out again for 20 min. at 34° C. The unreacted substrate was separated from (^3H) Adenosine by addition of Dowex AG 1-X8 (Biorad Lab), (400 ul) which was prequilibrated (1:1:1) in water and ethanol. Reaction mixture was then thoroughly mixed, placed on ice for 15 minutes, vortexed and centrifuged at 14,000 r.p.m. for 2 mins. After centrifugation, a sample of the supernatant was taken and added in 24 well optiplates containing Scintillant (1 ml) and mixed well. The samples in the plates were then determined for radioactivity in a Top Counter and the PDE4 activity was estimated. PDE4 enzyme was present in quantities that yield <30% total hydrolysis of substrate (linear assay conditions).
Results were expressed as percent inhibition (IC50) in nM concentrations. The IC50 values were determined from the concentration curves by nonlinear regression analysis.

[2] = system: PDE4; experiment: EC50 of the PDE4 results table (method not given)

SMILES: COc1ccc(C(=O)Nc2c(Cl)cncc2Cl)c2c1oc1ccc(NS(C)(=O)=O)cc12 [Example 01, N-(3,5-dichloropyrid-4-yl)-4-methoxy-8-methanesulfonamido-dibenzo[b,d]furan-1-carboxamide]
IC50 [1]: 0.506 nM | EC50 [2]: 8.57 nM

SMILES: COc1ccc(C(=O)Nc2c(Cl)cncc2Cl)c2c1oc1ccc(NS(=O)(=O)N(C)C)cc12 [Example 02, N-(3,5-dichloropyrid-4-yl)-4-methoxy-8-(N,N-dimethylsulphonamido)-dibenzo[b,d]furan-1-carboxamide]
IC50 [1]: 1.03 nM | EC50 [2]: 2.07 nM

SMILES: COc1ccc(C(=O)Nc2c(Cl)cncc2Cl)c2c1oc1ccc(NC(=O)C(=O)O)cc12 [Example 09, N-(3,5-dichloropyrid-4-yl)-4-methoxy-8-hydroxycarbonylcarboxamido-dibenzo[b,d]furan-1-carboxamide]
IC50 [1]: 1.03 nM | EC50 [2]: 138 nM

SMILES: COc1ccc(C(=O)Nc2c(Cl)cncc2Cl)c2c1oc1ccc(NC(=O)C(=O)O)cc12 [Example 10, N-(3,5-dichloropyrid-4-yl)-4-methoxy-8-hydroxycarbonylcarboxamido-dibenzo[b,d]furan-1-carboxamide sodium salt]
IC50 ([1]; sodium salt): 1.85 nM | EC50 ([2]; sodium salt): 38.2 nM

SMILES: COc1ccc(C(=O)Nc2c(Cl)cncc2Cl)c2c1oc1ccc(NC(=O)c3ccco3)cc12 [Example 11, N-(3,5-dichloropyrid-4-yl)-4-methoxy-8-(fur-2-yl-carboxamido)-dibenzo[b,d]furan-1-carboxamide]
IC50 [1]: 0.887 nM | EC50 [2]: 4.34 nM

SMILES: COc1ccc(C(=O)Nc2c(Cl)cncc2Cl)c2c1oc1ccc(N(C(=O)C3CC3)C(=O)C3CC3)cc12 [Example 13, N-(3,5-dichloropyrid-4-yl)-4-methoxy-8-(N,N-dicyclopropylcarbonylamino)-dibenzo[b,d]furan-1-carboxamide]
IC50 [1]: 74 nM

SMILES: COc1ccc(C(=O)Nc2c(Cl)cncc2Cl)c2c1oc1ccc(NC(=O)Oc3ccccc3)cc12 [Example 17, N-(3,5-dichloropyrid-4-yl)-4-methoxy-8-phenoxycarboxamido-dibenzo[b,d]furan-1-carboxamide]
IC50 [1]: 9.09 nM | EC50 [2]: 104 nM

SMILES: COc1ccc(C(=O)Nc2c(Cl)cncc2Cl)c2c1oc1ccc(NC(=O)NC3CCCC3)cc12 [Example 21, N-(3,5-dichloropyrid-4-yl)-4-methoxy-8-cyclopentylaminocarboxamido-dibenzo[b,d]furan-1-carboxamide]
IC50 [1]: 1.19 nM | EC50 [2]: 23.8 nM

SMILES: COc1ccc(C(=O)Nc2c(Cl)cncc2Cl)c2c1oc1ccc(NC(=O)N3CCN(C)CC3)cc12 [Example 22, N-(3,5-dichloropyrid-4-yl)-4-methoxy-8-(N-methylpiperazin-4-ylcarboxamido)-dibenzo[b,d]furan-1-carboxamide]
IC50 [1]: 1.28 nM | EC50 [2]: 9.34 nM

SMILES: COc1ccc(C(=O)Nc2c(Cl)cncc2Cl)c2c1oc1ccc(NC(=O)N3CCN(C)CC3)cc12 [Example 23, N-(3,5-dichloropyrid-4-yl)-4-methoxy-8-(N-methylpiperazin-4-ylcarboxamido)-dibenzo[b,d]furan-1-carboxamide hydrochloride]
IC50 ([1]; hydrochloride): 3.78 nM | EC50 ([2]; hydrochloride): 4.14 nM

SMILES: COc1ccc(C(=O)Nc2c(Cl)cncc2Cl)c2c1oc1ccc(NC(=O)N3CCC(O)CC3)cc12 [Example 24, N-(3,5-dichloropyrid-4-yl)-4-methoxy-8-(4-hydroxypiperidin-1-ylcarboxamido)-dibenzo[b,d]furan-1-carboxamide]
IC50 [1]: 3.01 nM | EC50 [2]: 2.94 nM

SMILES: COc1ccc(C(=O)Nc2c(Cl)cncc2Cl)c2c1oc1ccc(NC(=O)N3CCOCC3)cc12 [Example 25, N-(3,5-dichloropyrid-4-yl)-4-methoxy-8-(morphol-4-ylcarboxamido)-dibenzo[b,d]furan-1-carboxamide]
IC50 [1]: 5.07 nM | EC50 [2]: 8.9 nM

SMILES: CCCCCCNC(=O)Nc1ccc2oc3c(OC)ccc(C(=O)Nc4c(Cl)cncc4Cl)c3c2c1 [Example 27, N-(3,5-dichloropyrid-4-yl)-4-methoxy-8-n-hexylamino carboxamido-dibenzo[b,d]furan-1-carboxamide]
IC50 [1]: 3.4 nM | EC50 [2]: 4.16 nM

SMILES: CS(=O)(=O)Nc1ccc2oc3c(OC(F)F)ccc(C(=O)Nc4c(Cl)cncc4Cl)c3c2c1 [Example 30, N-(3,5-dichloropyrid-4-yl)-4-difluoromethoxy-8-methanesulfonamido-dibenzo[b,d]furan-1-carboxamide]
IC50 [1]: 1.63 nM | EC50 [2]: 3.59 nM

SMILES: CS(=O)(=O)Nc1ccc2oc3c(OC(F)F)ccc(C(=O)Nc4c(Cl)cncc4Cl)c3c2c1 [Example 31, N-(3,5-dichloropyrid-4-yl)-4-difluoromethoxy-8-methanesulfonamido-dibenzo[b,d]furan-1-carboxamide sodium salt]
IC50 ([1]; sodium salt): 1.43 nM | EC50 ([2]; sodium salt): 3.46 nM

SMILES: COc1ccc(C(=O)Nc2c(Cl)cncc2Cl)c2c3cc(NC(C)=O)ccc3n(C)c12 [Example 54, N-(3,5-dichloropyrid-4-yl)-1-methoxy-9-methyl-6-acetamido-9H-4-carbazolecarboxamide]
IC50 [1]: 237 nM

The remaining lines, values ahead:

IC50 [1]: 0.762 nM | EC50 [2]: 7.39 nM
SMILES: CCS(=O)(=O)Nc1ccc2oc3c(OC)ccc(C(=O)Nc4c(Cl)cncc4Cl)c3c2c1 [Example 03, N-(3,5-dichloropyrid-4-yl)-4-methoxy-8-(ethanesulphonamido)-dibenzo[b,d]furan-1-carboxamide]

IC50 [1]: 4.68 nM | EC50 [2]: 110 nM
SMILES: CCOC(=O)C(=O)Nc1ccc2oc3c(OC)ccc(C(=O)Nc4c(Cl)cncc4Cl)c3c2c1 [Example 08, N-(3,5-dichloropyrid-4-yl)-4-methoxy-8-ethoxycarbonylcarboxamido-dibenzo[b,d]furan-1-carboxamide]

IC50 [1]: 0.557 nM | EC50 [2]: 16.2 nM
SMILES: COc1ccc(C(=O)Nc2c(Cl)cncc2Cl)c2c1oc1ccc(NC(=O)C3CC3)cc12 [Example 12, N-(3,5-dichloropyrid-4-yl)-4-methoxy-8-(cyclopropylcarbonylamino)-dibenzo[b,d]furan-1-carboxamide]

IC50 [1]: 63.6 nM
SMILES: COc1ccc(C(=O)Nc2c(Cl)cncc2Cl)c2c1oc1ccc(NC(=O)OCC(C)C)cc12 [Example 16, N-(3,5-dichloropyrid-4-yl)-4-methoxy-8-isobutyloxycarboxamido-dibenzo[b,d]furan-1-carboxamide]

IC50 [1]: 4.79 nM | EC50 [2]: 9.01 nM
SMILES: COc1ccc(C(=O)Nc2c(Cl)cncc2Cl)c2c1oc1ccc(NC(=O)OCC(F)(F)F)cc12 [Example 19, N-(3,5-dichloropyrid-4-yl)-4-methoxy-8-trifluoromethylmethoxycarboxamido-dibenzo[b,d]furan-1-carboxamide]

IC50 [1]: 15.6 nM
SMILES: COc1ccc(C(=O)Nc2c(Cl)cncc2Cl)c2c1oc1ccc(NC(=O)NC(C)C)cc12 [Example 26, N-(3,5-dichloropyrid-4-yl)-4-methoxy-8-isopropylamino carboxamido-dibenzo[b,d]furan-1-carboxamide]

IC50 [1]: 1.4 nM | EC50 [2]: 6.33 nM
SMILES: CCNC(=O)Nc1ccc2oc3c(OC)ccc(C(=O)Nc4c(Cl)cncc4Cl)c3c2c1 [Example 28, N-(3,5-dichloropyrid-4-yl)-4-methoxy-8-ethylamino carboxamido-dibenzo[b,d]furan-1-carboxamide]

IC50 [1]: 2.14 nM | EC50 [2]: 19.3 nM
SMILES: CNC(=O)Nc1ccc2oc3c(OC)ccc(C(=O)Nc4c(Cl)cncc4Cl)c3c2c1 [Example 29, N-(3,5-dichloropyrid-4-yl)-4-methoxy-8-methylamino carboxamido-dibenzo[b,d]furan-1-carboxamide]

IC50 [1]: 14.1 nM
SMILES: CCS(=O)(=O)Nc1ccc2oc3c(OC(F)F)ccc(C(=O)Nc4c(Cl)cncc4Cl)c3c2c1 [Example 32, N-(3,5-dichloropyrid-4-yl)-4-difluoromethoxy-8-ethanesulfonamido-dibenzo[b,d]furan-1-carboxamide]

IC50 [1]: 12.1 nM
SMILES: CN(C)S(=O)(=O)Nc1ccc2oc3c(OC(F)F)ccc(C(=O)Nc4c(Cl)cncc4Cl)c3c2c1 [Example 33, N-(3,5-dichloropyrid-4-yl)-4-difluoromethoxy-8-N,N-dimethylaminosulfonamido-dibenzo[b,d]furan-1-carboxamide]

IC50 [1]: 4.64 nM | EC50 [2]: 8.44 nM
SMILES: O=C(Nc1c(Cl)cncc1Cl)c1ccc(OC(F)F)c2oc3ccc(NC(=O)C4CC4)cc3c12 [Example 36, N-(3,5-dichloropyrid-4-yl)-4-difluoromethoxy-8-cyclopropylcarboxamido-dibenzo[b,d]furan-1-carboxamide]

IC50 [1]: 21.5 nM | EC50 [2]: > 278 nM
SMILES: CCOC(=O)C(=O)Nc1ccc2oc3c(OC(F)F)ccc(C(=O)Nc4c(Cl)cncc4Cl)c3c2c1 [Example 37, N-(3,5-dichloropyrid-4-yl)-4-difluoromethoxy-8-ethoxycarbonylcarboxamido-dibenzo[b,d]furan-1-carboxamide]
